According to patent US11466066B2, “Variants of human BMP7 protein” (ELI LILLY AND COMPANY, priority 2017, dated 2022):
Marks after values point to notes of the source that are not given here.

B1: Human mature BMP7 protein variant F9 (SEQ ID NO: 8): homodimer wherein each monomeric subunit has SEQ ID NO: 8 (Y65G/I86L/F93V/N110G/Y128W), disulfide linked (protein)
chain: STGSKQRSQNRSKTPKNQEALRMANVAENSSSDQRQACKKHELYVSFRDLGWQDWIIAPEGYAAGYCEGECAFPLNSYMNATNHALVQTLVHVINPETVPKPCCAPTQLGAISVLYFDDSSNVILKKWRNMVVRACGCH
modifications: homodimer, disulfide linked
B2: Wild type human mature BMP7 (SEQ ID NO: 2): dimer of two glycosylated, 139 amino acid disulfide-linked proteins of about 35 kDa, SEQ ID NO: 2 (protein, listed as Homo sapiens)
chain: STGSKQRSQNRSKTPKNQEALRMANVAENSSSDQRQACKKHELYVSFRDLGWQDWIIAPEGYAAYYCEGECAFPLNSYMNATNHAIVQTLVHFINPETVPKPCCAPTQLNAISVLYFDDSSNVILKKYRNMVVRACGCH
modifications: disulfide-linked glycosylated homodimer

Experiments:
[1] = Thermal unfolding assay (circular dichroism); type: physicochemical; details: CD at 208 nm; 10 mM citrate, 300 mM NaCl, pH 7.4
Protocol: The effect of temperature on the conformational stability of human BMP7 protein variants may be followed by circular dichroism (CD) on a Jasco J-810 instrument equipped with a thermoelectric sample compartment. Briefly stated, 0.2-1.0 mg/mL pro-BMP7 may be formulated in storage buffer (10 mM citrate, 300 mM NaCl, pH 7.4) and loaded into a 0.02 cm path-length CD cuvette. The sample may be heated from 20 to 80° C. at a linear rate of 1° C./minute and the resulting CD signal at 208 nm may be recorded every 0.2° C. using a 1 second signal response time. A non-linear fit to equation 1 may be performed by the program JMP (SAS Institute Inc, Cary, N.C.) to obtain the thermal unfolding mid-point (Tm).
[formula] where, Yu and Yf are fit and represent the Y-intercept of the pre- and post-transition baselines, respectively. Mu and Mf are fit and represent the slope of the pre- and post-transition baselines, respectively. Hm and S are fit and represent enthalpy and entropy, respectively. T is the measured temperature in Kelvin units.

[2] = system: 3T3-L1 fibroblasts; experiment: Alkaline phosphatase stimulation in 3T3-L1 cells; type: cell-based; details: 1 μg/ml pro-BMP7, 1 μM ATRA, 48 hours
Protocol: 3T3-L1 fibroblasts and MFc7 mouse renal myofibroblasts may be grown essentially as described in Example 2 above. After 48 hours the cells may be washed with PBS prior to the addition of either DMEM/2% dialyzed FBS or OPTI-MEM/2% dialyzed FBS medium containing control vehicle, 1 μg/ml human proBMP7 protein, 1 μM ATRA or a combination of both human BMP7 protein (1 μg/ml) and ATRA (1 μM) may be added for 48 hours. After treatment the cells may be rinsed with PBS and stored at −80° C. for approximately 20 minutes. The cells may be thawed at 37° C. for 30 minutes and 100 μl of PNPP may be added to every well. The plate may be incubated at 37° C. for 1 hour. The absorbance at 405 nm may be read on a plate reader.

[3] = system: human articular osteoarthritic (OA) chondrocytes; experiment: Proteoglycan synthesis (35S incorporation); type: cell-based; details: 7 days
Source text: Proteoglycan synthesis in human articular osteoarthritic (OA) chondrocytes is an n vitro model for chondrocyte activity. The effect of human mature BMP7 protein variants may also be evaluated on proteoglycan synthesis m human articular OA chondrocytes in vitro and compared to wild type human mature pro-BMP7. The proteoglycan synthesis may be measured using ^35S incorporation. Arthritic human knee cartilage is obtained from donors at surgery. The cartilage pieces may be finely chopped and chondrocytes may be isolated from the associated matrix by enzymatic digestions. The cartilage may be first digested with 1 mg/ml pronase in DMEM/PRF (phenol red free) media with 5% Fe supplemented calf serum (FCS) and 2% penicillin-streptomycin-antimycotic for 60 minutes followed by overnight digestion with 1 mg/ml collagenase II in DMEM/PRF media with 5% FCS) and 2% penicillin-streptomycin-antimycotic at 37° C. The cells may be washed with DMEM/F-12 media and then resuspended in DMEM/F-12 with 5% FCS and counted with a Coulter counter. The cells may be plated at a density of 30,000 cells/well in 96-well collagen coated CytoStar T plate in growth media containing DMEM, 5% FCS. ITS (insulin, transferin, selenium) and 1% penicillin-streptomycin-antimycotic. After 24 hours, the media may be replaced with 100 μl of growth media containing 10 μCi/ml (1 μCi/well) of ^35S and treated with wild type human pro-BMP7 or a human pro-BMP7 protein variants at various doses. Then the cells may be incubated for approximately 7 days at 37° C. with 5% CO2. At the end of the treatment period the media may be removed, replaced with phosphate buffered saline and ^35S incorporation is counted using a Wallac 1450 MicroBeta TriLux Liquid Scintillation Counter & Luminometer.

[4] = system: RAR gamma; experiment: RAR gamma protein expression, Western Blot; type: cell-based, mouse; details: MFc7 and 3T3-L1 cell lines; 1 μg/mL, 48 hours; Western Blot intensity
Protocol: (§1) 3T3-L1 fibroblasts and MFc7 mouse renal myofibroblasts may be maintained under routine cell culture conditions in DMEM/10% calf serum medium or OPTI-MEM/10% FBS medium, respectively. The cells may be plated in 10 cm tissue culture plates at a seeding density of 500,000 cells/plate. After 48 hours, the cells may be washed with PBS prior to the addition of either DMEM/2% dialyzed FBS or OPTI-MEM/2% dialyzed FBS medium containing 1 μg/mL human BMP7 protein or 1 μg/mL of a human BMP7 protein variant. The cells may be incubated for 48 hours and then rinsed with ice-cold PBS, and then lysed with Protein Extraction Reagent. Then lysates may be centrifuged at 14,000×g for 15 minutes. A Bradford protein assay may be performed to determine the protein concentration of each lysate. Equivalent amounts of protein (for example, 25 μg) may be resolved by SDS-PAGE and then transferred to nitrocellulose membranes for Western Blot analysis. The membranes may be probed with an anti-RAR alpha antibody and/or an anti-RAR gamma antibody.

[5] = system: female CB17SC-M SCID mice; experiment: Ectopic bone formation model; type: in vivo; details: 3 μg/100 μl subcutaneous; CT scan on Day 13
Protocol: Ectopic bone formation (EBF) may be measured in female CB17SC-M SCID mice upon subcutaneous administration of certain human BMP7 protein variants of the present invention compared to wild type human mature BMP7.
Briefly described, the mice may be anesthetized with 3% isoflurane and are injected with 3 μg/100 μl of the human BMP7 protein variant, wild type human mature BMP7 protein or a vehicle control on the back left flank. The back right flank of each mouse may serve as a control (no injection). Vehicle (pH 4.5): 0.5% Sucrose, 2.5% Glycine, 5 mM L-Glutamic Acid, 5 mM NaCl, 0.01% polysorbate 80, and, 0.1% BSA.
EBF may be measured by a CT scan on Day 13 after injection of the human BMP7 protein variant or wild type human mature BMP7 protein.

[6] = system: RAR alpha; experiment: RAR alpha protein expression, Western Blot; type: cell-based, mouse; details: MFc7 and 3T3-L1 cell lines; 1 μg/mL, 48 hours; Western Blot intensity
Protocol: as §1

Molecule	thermal unfolding mid-point (Tm) [1] [°C]	fold change in alkaline phosphatase stimulation relative to control vehicle treated cells [2] [fold]	Proteoglycan Synthesis (35S incorporation) ([3]; Treatment (ng) 0.1) [CPMs]	Proteoglycan Synthesis (35S incorporation) ([3]; Treatment (ng) 0.4) [CPMs]	Proteoglycan Synthesis (35S incorporation) ([3]; Treatment (ng) 1.2) [CPMs]	Proteoglycan Synthesis (35S incorporation) ([3]; Treatment (ng) 3.7) [CPMs]	Proteoglycan Synthesis (35S incorporation) ([3]; Treatment (ng) 11) [CPMs]	Proteoglycan Synthesis (35S incorporation) ([3]; Treatment (ng) 33) [CPMs]	Proteoglycan Synthesis (35S incorporation) ([3]; Treatment (ng) 100) [CPMs]	Proteoglycan Synthesis (35S incorporation) ([3]; Treatment (ng) 300)	RAR gamma protein expression [4]	Ectopic Bone Formation Volume [5] [mm^3]	RAR alpha protein expression [6]
Wild type human pro-BMP7: homodimers of wild type human mature BMP7 in a non-covalent complex with wild type human pro-domain [reference compound]	61	1.2	679 ± 120	724 ± 120	679 ± 120	666 ± 130	723 ± 72	799 ± 65	1500 ± 309	3325 ± 237^a CPMs	–	–	–
B1	–	–	–	–	–	–	–	–	–	–	stimulated	7	stimulated
B2	–	–	–	–	–	–	–	–	–	–	–	78	–
